Test results taken from patent US20070275005A1, “Use of Lipopeptides for Activating T Lymphocytes Through the Skin” (TX-CELL, priority 2003, published 2007).
Where no end group is shown, it is not given here.

Tests used:
[1] = test system: OVA-specific DO11-10 T cells; experiment: In vivo activation of T lymphocytes by cutaneous lipopeptide application on the ear (FACS of draining lymph node); set-up: species or system BALB/c mice; details: daily 20 μl of 50 μM on the ear, vs olive oil; FIG. 1
Method: Lipopeptide activates T lymphocytes in vivo. BALB/c mice were injected intravenously with 20×10^6 DO11-10 TCR-anti OVA transgenic splenocytes. Mice where then treated during 4 days by applying daily 20 μl of 50 μM OVA323-339-lipopeptide or the vehicle directly on one ear. At day five, mice were sacrificed, the draining lymph node and the contra-lateral node cells were stained with the anti-idiotype KJ1-26 recognizing specifically DO11-10 T lymphocytes, anti-CD4 and anti-CD25 antibody. FACS analysis is shown for lymph node cells gated on CD4^+ T lymphocytes.
To analyze the potential curative effect of Tr1 cells in a different inflammatory model, the inventors set up skin inflammation experiments using the hapten oxazolone in three daily applications (FIG. 1). Because Tr1 cells need to be activated at the site of inflammation, they first tested the ability of cutaneous application of lipo-Ova peptide to stimulate T cells. BALB/c mice were injected with naive OVA-specific DO11-10 T cells and mice were treated during […] by applying daily 20 μl of 50 μM OVA323-339-lipopeptide or olive oil directly on the ear. […] In that model, three days after the induction of ear inflammation with oxazolone, the mice were treated with OVA-specific Th1, Th2 or Tr1 T-cell populations or a Tr1 cell clone (FIG. 2) and the lipo-OVA peptide was applied for 6 days.

[2] = test system: CD4+ mediated humoral response; experiment: Enhancement of a CD4+ mediated humoral response (serum Ovalbumin-specific IgE); assay type: in vivo, Balb/C mice; details: mice immunised i.p. with 25 μg Ovalbumin in Alumn; 1 mg lipopeptide on skin for 3 days; day 20; FIG. 5
Method: (§1) TRP2180-188 lipopeptide and OVA323-339-lipopeptide were diluted at 10 mg/ml in olive oil. Mice were treated during by applying 1 mg lipopeptide or olive oil directly on shaved abdominal skin.
(§2) Sandwich ELISA was used to measure IFN-γ. In brief, ELISA plates (Polylabo, France) were coated with the appropriate coating mAbs (monoclonal antibodies) in carbonate buffer and incubated at 4° C. overnight. Plates were blocked for 30 mn at room temperature with 150 μl of 20% FCS/PBS to each well. 50 μl supernatants from in vitro stimulated cells were then added to the plates and incubated overnight at 4° C. After a washing step, 50 μl/well of the biotinylated second-step Ab was added. Plates were incubated for 1 h at room temperature and washed. The enzyme conjugate (streptavidin-peroxidase) was then added to each well. Plates were incubated at room temperature for 1 h, washed and 100 μl/well of substrate was added, (1 mg/ml ABTS). Plates were read on an ELISA reader at a wavelength of 405 nm after color development (Labsystems iEMS reader, Helsinki, Finland). […]
The inventors also wanted to know wether a lipopeptide epicutaneous application could enhance an humoral response elicited by CD4^+ T lymphocytes in immunised mice. […] At day 20, mice were sacrificed and the concentration of Ovalbumin-specific IgE immunoglobulin was measured in the serum of mice.

[3] = test system: CD8+ mediated T lymphocyte response; experiment: Enhancement of a CD8+ T lymphocyte response after prior peptide immunisation (IFN-γ by lymph node cells); assay type: in vivo; details: mice previously immunised s.c. with 25 μg TRP2180-188 peptide in CFA; 1 mg lipopeptide on skin for 3 days; day 30; FIG. 4
Method: as §1, §2
The inventors next wanted to evaluate the capacity of the TRP2180-188 lipopeptide treatment to enhance a prior immunisation of mice with the TRP2180-188 peptide. […] At day 30, mice were sacrificed and the production of IFN-γ by skin draining lymph nodes cells was measured in vitro upon restimulation with the TRP2180-188 peptide.

[4] = test system: CD8+ mediated T lymphocyte response; experiment: Priming of a CD8+ T lymphocyte response by epicutaneous lipopeptide application (IFN-γ by lymph node cells); assay type: in vivo, C57BL/6 mice; details: 1 mg on shaved abdomen once a day during one week, read one week later, vs untreated or vehicle; FIG. 3
Method: as §1
as §2, with “Plates were incubated at room temperature for 1 h, washed and 100 μl/well of substrate was added, (1 mg/ml ABTS).” left out
The inventors first wanted to know whether the epicutaneous application of a MHC class I restricted peptide formulated as a lipopeptide could prime a T CD8^+ lymphocyte mediated immune response in mice. […] One week after the last lipopeptide application, mice were sacrificed and the production of IFN-γ by skin draining lymph nodes cells was measured in vitro upon restimulation with the TRP2180-188 peptide.

Row | Substance | activated (CD25+) OVA-specific (KJ1-26+) T cells in draining lymph nodes [1] | serum concentration of Ovalbumin-specific IgE [2] | production of IFN-γ by skin draining lymph nodes cells upon restimulation with the TRP2180-188 peptide [3] | production of IFN-γ by skin draining lymph nodes cells upon restimulation with the TRP2180-188 peptide [4]
1 | OVA323-339-lipopeptide (KISQAVHAAHAEINEAG; also: lipid moiety, structure and place not given here; UniProt P01012 323-339, looked up, fragment) [peptide 323-339 from Ovalbumin, MHC Class II I-A^d restricted, formulated as lipopeptide; purchased from Bachem] | accumulation of activated (CD25^+) OVA-specific (KJ1-26^+) only in the ear draining-lymph node treated with the lipopeptide | increase in the serum concentration of Ovalbumin specific IgE |  | 
2 | TRP2180-188 lipopeptide (SVYDFFVWL; also: lipid moiety, structure and place not given here; UniProt P29812 180-188, looked up, fragment) [lipopeptide derived from the tyrosinase related protein-2, restricted to the H2-K^b molecule; purchased from Bachem] |  |  | enhancement of the IFNγ production | high amounts of IFN-γ were produced
